Reference: publication PMC9948168, “Vanillin-Based Indolin-2-one Derivative Bearing a Pyridyl Moiety as a Promising Anti-Breast Cancer Agent via Anti-Estrogenic Activity” (ACS Omega, 2023)

Tests used:
Assay in all cases: NCI-60 one-dose screening
Assay type in all cases: cell-based
HCT-15 = details: Homo sapiens, HCT-15, Colon Cancer, read-out: GI (%)
OVCAR-8 = details: Homo sapiens, OVCAR-8, Ovarian Cancer, read-out: GI (%)
SF-268 = details: Homo sapiens, SF-268, CNS Cancer, read-out: GI (%)
OVCAR-3 = details: Homo sapiens, OVCAR-3, 10 μM; OVCAR-3, Ovarian Cancer; read-out: GI (%)
SK-MEL-5 = details: Homo sapiens, SK-MEL-5, Melanoma, read-out: GI (%)
HOP-92 = details: Homo sapiens, HOP-92, Non-Small Cell Lung Cancer, read-out: GI (%)
T-47D = details: Homo sapiens, T47D, Breast Cancer, read-out: GI (%)
SK-MEL-2 = details: Homo sapiens, SK-MEL-2, Melanoma, read-out: GI (%)
NCI-H322M = details: Homo sapiens, Non-Small Cell Lung Cancer, read-out: GI (%)
HCC-2998 = details: Homo sapiens, HCC-2998, Colon Cancer, read-out: GI (%)
TK-10 = details: Homo sapiens, TK-10, Renal Cancer, read-out: GI (%)
RPMI-8226 = details: Homo sapiens, RPMI-8226, Leukemias, read-out: GI (%)
SN12C = details: Homo sapiens, Renal Cancer, read-out: GI (%)
MDA-MB-435 = details: Homo sapiens, MDA-MB-435, Melanoma, read-out: GI (%)
NCI-H23 = details: Homo sapiens, NCI-H23, Non-Small Cell Lung Cancer, read-out: GI (%)
MALME-3M = details: Homo sapiens, Melanoma, read-out: GI (%)
SR = details: Homo sapiens, Leukemias, read-out: GI (%)
PC-3 = details: Homo sapiens, PC-3, Prostate Cancer, read-out: GI (%)
MOLT-4 = details: Homo sapiens, MOLT-4, Leukemias, read-out: GI (%)
OVCAR-4 = details: Homo sapiens, OVCAR-4, 10 μM; OVCAR-4, Ovarian Cancer; read-out: GI (%)
KM12 = details: Homo sapiens, KM12, Colon Cancer, read-out: GI (%)

SMILES | inhibition at 10 µM (HCT-15) | inhibition at 10 µM (OVCAR-8) | inhibition at 10 µM (SF-268) | inhibition at 10 µM (OVCAR-3) | inhibition at 10 µM (SK-MEL-5) | inhibition at 10 µM (HOP-92) | inhibition at 10 µM (T-47D) | inhibition at 10 µM (SK-MEL-2) | inhibition at 10 µM (NCI-H322M) | inhibition at 10 µM (HCC-2998) | inhibition at 10 µM (TK-10) | inhibition at 10 µM (RPMI-8226) | inhibition at 10 µM (SN12C) | inhibition at 10 µM (MDA-MB-435) | inhibition at 10 µM (NCI-H23) | inhibition at 10 µM (MALME-3M) | inhibition at 10 µM (SR) | inhibition at 10 µM (PC-3) | inhibition at 10 µM (MOLT-4) | inhibition at 10 µM (OVCAR-4) | other results
COc1cc(C=C2C(=O)Nc3cc(Cl)ccc32)ccc1OCc1ccc(Cl)cc1 (mixture of isomers) [6l] | 6.77% | 2.85% | -5.63% | -3.06% | 1.7% | 15.3% | 14.8% | -8.37% | 4.89% | -18.5% | -59.6% | 11.9% | 1.62% | -5.52% | 0.58% | 2.26% | 4.64% | 11.1% | 6.35% | 25.6% | inhibition at 10 µM (KM12): 3.74%
COc1cc(/C=C2/C(=O)Nc3ccccc32)ccc1OCc1ccc(Cl)cc1 [6b] | 6.05% | -1.64% | 1.43% | -5.51% | -2.87% | -12.5% | -6.94% | -5.45% | 0.35% | -23.5% | -35.9% | 2.49% | -2.93% | -6.4% | 6.66% | 4.51% | 6.17% | 5.22% | 6.07% | 0.89% | inhibition at 10 µM (KM12): 0.38%
COc1ccc(COc2ccc(/C=C3/C(=O)Nc4cc(Cl)ccc43)cc2OC)cc1 [6n] | 0.12% | 1.31% | 0.26% | -5.39% | 3.06% | -8.09% | 12.8% | -0.29% | 3.24% | -22.2% | -64.4% | 9.52% | 4.32% | -5.13% | 2.17% | 2.77% | 0.64% | 7.65% | 0.87% | 17.6% | inhibition at 10 µM (KM12): 0.42%
COc1cc(/C=C2/C(=O)Nc3cc(Cl)ccc32)ccc1OCc1ccccn1 [6o] | 7.58% | -2.7% | -6.37% | -15.5% | 1.29% | -5.39% | 0.18% | -8.06% | 0.51% | -11.7% | -69.3% | -0.91% | -4.12% | -6.9% | 4.55% | 4.92% | 6.43% | 2.25% | 3.45% | 3.45% | inhibition at 10 µM (KM12): 2.85%
COc1ccc(COc2ccc(/C=C3/C(=O)Nc4ccccc43)cc2OC)cc1 [6d] | -4.57% | -0.59% | -3% | -14.7% | -7.74% | -1% | -12.8% | -8.22% | -5.76% | -2.21% | -13.4% | -4.4% | 0.36% | -6.21% | -2.85% | 0.29% | -1.92% | 4.22% | -1.85% | 0.17% | inhibition at 10 µM (KM12): -3.98%
COc1cc(C=C2C(=O)Nc3ccccc32)ccc1OCc1ccccc1 (mixture of isomers) [6a] | 12.2% | -0.93% | -1% | 11% | -3.35% | 4.67% | -13% | -10.6% | 5.18% | -19.5% | -40.3% | 1% | 3.52% | -3.92% | -2.84% | 8.77% | 14.6% | 5.85% | 1.73% | 3.22% | inhibition at 10 µM (KM12): -0.02%
COc1cc(/C=C2/C(=O)Nc3cc(Cl)ccc32)ccc1OCc1ccccc1 [6k] | 6.47% | 0.19% | -1.04% | -3.45% | -1.43% | 4.54% | -0.39% | -5.05% | 0.99% | 0.85% | -55.6% | -4.86% | 3.34% | -4.45% | 2.27% | 4.05% | 6.78% | 6.35% | 4.75% | 10.4% | inhibition at 10 µM (KM12): 1.29%
COc1cc(/C=C2/C(=O)Nc3ccccc32)ccc1OCc1ccc(F)cc1 [6c] | -1.14% | -1.99% | -5.39% | -16.7% | -2.32% | 0.18% | -6.65% | -7.35% | -3.28% | -18.9% | -29.6% | -6.91% | 0.05% | -3.45% | 1.03% | 0.21% | 9.9% | -0.92% | 3.23% | -2.67% | inhibition at 10 µM (KM12): -0.58%
COc1cc(C=C2C(=O)Nc3ccccc32)ccc1OCc1ccccn1 (mixture of isomers) [6e] | 20% | 0.31% | 6.47% | 0.9% | 11.7% | 28.1% | 15.8% | -1.21% | 8.2% | -16.2% | -51.2% | 15.2% | 2.56% | -7.05% | 12.6% | 6.1% | 21.7% | 7.05% | 12.5% | 8.74% | inhibition at 10 µM (KM12): 3.09%
COc1cc(/C=C2/C(=O)Nc3cc(Cl)ccc32)ccc1OCc1ccc(F)cc1 [6m] | 10.9% | 1.34% | -0.8% | -1.69% | 1.04% | 10.8% | 5.94% | 0.15% | 1.78% | 3.17% | -85.2% | -13.2% | 4.13% | -3.13% | -0.55% | 7.28% | 2.45% | 13% | -0.43% | 16.8% | inhibition at 10 µM (KM12): -2.27%
